Target: T1, OCT1 (Homo sapiens, UniProt O15245)
T1 construct: expressed in transfected cells; host or cells: HEK293
T1 sequence (O15245 1-554): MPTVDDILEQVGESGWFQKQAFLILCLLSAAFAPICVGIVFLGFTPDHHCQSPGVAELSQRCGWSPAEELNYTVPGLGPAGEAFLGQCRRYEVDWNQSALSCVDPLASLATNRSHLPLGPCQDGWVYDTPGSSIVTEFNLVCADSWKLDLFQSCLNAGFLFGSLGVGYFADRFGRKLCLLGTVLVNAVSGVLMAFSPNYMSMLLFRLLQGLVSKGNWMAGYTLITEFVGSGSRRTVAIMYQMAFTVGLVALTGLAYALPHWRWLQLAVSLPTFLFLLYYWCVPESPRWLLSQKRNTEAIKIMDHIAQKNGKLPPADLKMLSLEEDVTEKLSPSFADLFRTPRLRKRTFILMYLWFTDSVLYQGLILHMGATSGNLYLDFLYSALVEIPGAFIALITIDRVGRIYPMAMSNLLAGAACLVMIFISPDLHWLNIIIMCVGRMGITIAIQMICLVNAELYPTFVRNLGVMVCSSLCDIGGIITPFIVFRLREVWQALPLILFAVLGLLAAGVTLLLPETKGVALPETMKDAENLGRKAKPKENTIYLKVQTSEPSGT
Experiment: not given
Parameters: method as in PMID 34093211
Conditions: cited from earlier work

SMILES	OCT1 substrate status
CN(C)CCC=C1c2ccccc2CCc2ccccc21 [Amitriptyline]	not OCT1 substrates

Test system: not given
Experiment: not given
Parameters: method as in PMID 19243716
Conditions: published studies; cited from earlier work

SMILES	variation of blood concentrations
c1cnc2cc3c(cc2n1)[C@@H]1CNC[C@H]3C1 [varenicline]	more than 100 fold

Target: T1, OCT1
Experiment: Cell uptake in OCT1 overexpressing HEK293 cells over empty-vector transfected cells
Format: cell-based
Conditions: not given

SMILES	OCT1 Ratio
N[C@@H]1C[C@H]1c1ccccc1 (racemic) [Tranylcypromine]	1.60
Nc1nc2c(ncn2COCCO)c(=O)[nH]1 [Acyclovir]	2.00
CC(C)(C)NCC(O)c1cc(Cl)c(N)c(Cl)c1 (centres unmarked) [Clenbuterol]	1.10
COc1cccc2c1C(=O)c1c(O)c3c(c(O)c1C2=O)C[C@@](O)(C(C)=O)C[C@@H]3O[C@H]1C[C@H](N)[C@H](O)[C@H](C)O1 [Daunorubicin]	1.10
CN(C)CC(c1ccc(O)cc1)C1(O)CCCCC1 (centres unmarked) [Desmethylvenlafaxine]	3.30
COc1ccc2c3c1O[C@H]1[C@@H](O)CC[C@H]4[C@@H](C2)N(C)CC[C@@]341 [Dihydrocodeine]	0.80
CNCC[C@H](Oc1cccc2ccccc12)c1cccs1 [Duloxetine]	1.20
CN[C@@H](C)[C@H](O)c1ccccc1 [Ephedrine]	1.50
CCOC(=O)c1cncn1[C@H](C)c1ccccc1 [Etomidate]	0.94
COc1ccc2c3c1O[C@H]1C(=O)CC[C@H]4[C@@H](C2)N(C)CC[C@]314 [Hydrocodone]	1.20
CNC1(c2ccccc2Cl)CCCCC1=O (centres unmarked) [Ketamine]	1.10
CCC1(c2cccc(O)c2)CCCCN(C)C1 (centres unmarked) [Meptazinol]	3.20
COC(=O)C(c1ccccc1)C1CCCCN1 (centres unmarked) [Methylphenidate]	1.90
CCN(CC)CCNC(=O)c1cc(Cl)c(N)cc1OC [Metoclopramide]	1.80
CNCC1CCCCC1(O)c1cccc(OC)c1 (centres unmarked) [N-Desmethyltramadol]	2.40
CCOC(=O)[C@]1(c2ccccc2)CCC=C[C@H]1NC [Nortilidine]	1.62
COc1ccc2c3c1O[C@H]1C(=O)CC[C@@]4(O)[C@@H](C2)N(C)CC[C@]314 [Oxycodone]	0.90
Fc1ccc([C@@H]2CCNC[C@H]2COc2ccc3c(c2)OCO3)cc1 [Paroxetin]	1.17
CC(C)(C)NCC(O)c1ccc(O)c(CO)n1 (centres unmarked) [Pirbuterol]	80.90
N#CC(CCN1CCC(C(N)=O)(N2CCCCC2)CC1)(c1ccccc1)c1ccccc1 [Piritramide]	1.18
CNC(=C[N+](=O)[O-])NCCSCc1ccc(CN(C)C)o1 [Ranitidin]	18.10
CN1[C@@H]2C[C@@H](OC(=O)[C@H](CO)c3ccccc3)C[C@H]1[C@@H]1O[C@@H]12 [Scopolamin]	1.10
Cn1c(=O)c2[nH]cnc2n(C)c1=O [Theophyllin]	1.00
CCOC(=O)C1(c2ccccc2)CCC=CC1N(C)C (centres unmarked) [Tilidine]	1.30

Same assay, conditions: cell uptake in OCT1 overexpressing cells over uptake in mock transfected cells

SMILES	OCT1 Ratio
CCCC(=O)Nc1ccc(OCC(O)CNC(C)C)c(C(C)=O)c1 (centres unmarked) [Acebutolol]	5.20
CN(C)CCC=C1c2ccccc2CCc2ccccc21 [Amitriptyline]	1.20
C[N+](C)(C)CC(=O)O [Betaine]	1.00
CC(C)NCC(O)COc1ccc(COCCOC(C)C)cc1 (centres unmarked) [Bisoprolol]	1.00
COc1cc(OC)c(C(=O)CCCN2CCCC2)c(OC)c1 [Buflomedil]	1.00
C[N+](C)(C)CCO [Choline]	1.50
CC(CCc1ccc(O)cc1)NCCc1ccc(O)c(O)c1 (centres unmarked) [Dobutamine]	14.70
CN(C)CCC=C1c2ccccc2COc2ccccc21 [Doxepin]	1.30
CN1CCC[C@@H]1Cc1c[nH]c2ccc(CCS(=O)(=O)c3ccccc3)cc12 [Eletriptan]	1.20
CN[C@@H]1CCc2[nH]c3ccc(C(N)=O)cc3c2C1 [Frovatriptan]	33.10
NNC(=O)c1ccncc1 [Isoniazid]	0.94
CC[C@@H](C(N)=O)N1CCCC1=O [Levetiracetam]	1.00
CC12CC3CC(C)(C1)CC(N)(C3)C2 [Memantine]	1.10
C[C@@H](O)[C@H]1C(=O)N2C(C(=O)O)=C(S[C@@H]3CN[C@H](C(=O)N(C)C)C3)[C@H](C)[C@H]12 [Meropenem]	1.10
Cc1nccn1CC1CCc2c(c3ccccc3n2C)C1=O (centres unmarked) [Ondansetron]	1.00
Cn1c(=O)[nH]c2ncn(C)c2c1=O [Paraxanthine]	1.00
CNC[C@H](O)c1cccc(O)c1 [Phenylephrine]	10.60
CC(C)NCC(O)COc1cccc2[nH]ccc12 (centres unmarked) [Pindolol]	1.20
CC(C)NCC(O)COc1cccc2ccccc12 (centres unmarked) [Propranolol]	1.10
NC(=O)c1cnccn1 [Pyrazinamide]	0.80
Cc1ncc(C[n+]2csc(CCO)c2C)c(N)n1 [Thiamine]	11.60
COc1cc(Cc2cnc(N)nc2N)cc(OC)c1OC [Trimethoprim]	1.90
COc1ccccc1N1CCN(CCCNc2cc(=O)n(C)c(=O)n2C)CC1 [Urapidil]	1.10
CN(C)CCc1c[nH]c2ccc(C[C@H]3COC(=O)N3)cc12 [Zolmitriptan]	10.00
